From patent US20250179061A1 (SIRONAX LTD., priority 2022, published 2025)

What follows are compounds tested on HT-29 cells (assay: HT-29 necroptosis cell viability assay (TNF-α/SMAC mimetic/zVAD-FMK, CellTiter-Glo)). Details: Homo sapiens, HT-29, HT-29 cells, necroptosis induced by TNF-α/SMAC mimetic/zVAD-FMK, CellTiter-Glo; read-out: Activity (IC50 class).
Type: cell-based
Experimental: Compounds 1-702 of the disclosure were tested for biological activity, following the experimental procedures described below.
• Cell line: HT-29 (ATCC® HTB-38™) • Culture medium: McCOY's 5A, Gibco, Cat No. 16600-082 • FBS, Gibco, Cat No. 10099-141 C • Trypsin: Gibco, Cat No. 25200-056 • DMSO: Sigma, Cat No. 67-68-5, 1L • Assay plate: Corning #3903 • Compound dilution plate: Corning #3357 • Inducers: TNFα, GenScript, Cat No. Z01001-50, • SmacM, Cat. No., HY-15989, MedChemExpress (MCE) • Z_VAD FMK, TargetMol, T6013 • Cell Titer-Glo® Luminescent Cell Viability Assay Kit: Promega, Cat No. G7573 • EnVision: PerkinElmer, 2105-0010
• 1. HT-29 cells were checked every day to make sure that they were healthy and growing as expected. They were subjected to sub-culturing when they were approximately 80% confluent. • 2. The culture medium, McCOY's 5A medium (Gibco, Cat No. 16600-082) with 10% fetal bovine serum or FBS (Gibco, Cat No. 10099-141C), was pre-warmed in a 37° C. water bath for at least 30 min. • 3. When the cells had reached a desired level of confluency of 80% in a T75 flask, the medium was aspirated, and the cells were washed with warm phosphate buffered saline or PBS two times. • 4. 2-3 ml fresh warm trypsin (Gibco, Cat No. 25200-056) solution was added to the washed cells. The flask with the cells was transferred to a 37° C. incubator. • 5. After 5 minutes, the side of the flask was tapped, and the flask was examined under a microscope for detachment of the cells to the flask. If necessary, the cells were kept in the incubator for an additional 5-10 minutes, with occasional tapping, until lifting was complete. • 6. The trypsin reaction was neutralized by transferring 6-9 ml cell culture medium to sterile 15 ml conical tubes, and by centrifuging the cell culture at 300×g for 7 minutes to pellet the cells (supernatant decanted). • 7. The cells were resuspended in fresh cell culture medium and the cell counting was performed using a hemocytometer. • 8. 100 μl of the resuspended cell culture medium containing ˜5,000 cells were transferred into each well of the sterile 96-well cell culture plate (Corning 3903) and cultured overnight at 37° C. with 5% CO2.
• 1. All test compounds were dissolved in DMSO (Dimethyl sulfoxide) to create a 20 mM stock. • 2. 3 μl of 20 mM stock of each compound was mixed with 27 μl DMSO, and the compound solution was further diluted at a titration ratio of 1:3 (20 μl compound solution+40 μl DMSO) till the 10 points end. • 3. All culture medium was removed from assay plates filled with HT-29 cell cultures. The cells were then washed with 1 PBS, and resuspsended in fresh, FBS-free McCOY's 5A medium containing a cocktail of TNF-α (10 ng/ml), a SMAC mimetic compound (6 μM) and Z-VAD-fluoromethylketone or zVAD-FMK (10 μM) to stimulate the HT-29 cells to increase RIP1 kinase levels and necroptosis. • 4. 0.5 μL of the diluted compound solution was added to the corresponding 96-well assay plates. • 5. The assay plates were incubated for 20 hours at 37° C. with 5% CO2.
• 1. The CellTiter-Glo® Luminescent Cell Viability Assay was employed to detect the ATP levels of viable HT-29 cells. • 2. The CellTiter-Glo® buffer and the lyophilized substrate were equilibrated to room temperature prior to use. • 3. The CellTiter-Glo® substrate was resuspended with CellTiter-Glo® buffer, then mixed by gently vortexing to obtain a homogeneous solution. • 4. 20 μl of the enzyme/substrate mixture was transferred by multi-channel pipetting into 96-well assay plates. • 5. The assay plates were placed on an orbital shaker and the contents were shaken for 3 minutes to induce cell lysis. • 6. The assay plates were incubated at room temperature for 10 minutes to stabilize the luminescent signal. • 7. The luminescence signals were read and recorded with EnVision. • 8. The geometric mean IC50 values were calculated from 10 points response dose with duplicates. […]

Row | Compound | IC50
1 | Cc1nc(N2CC(C)(C#N)C2)nn1Cc1ccc(-n2ncn(Cc3c(F)cccc3F)c2=O)cc1 [Example 665, 1-(1-(4-(4-(2,6-difluorobenzyl)-5-oxo-4,5-dihydro-1H-1,2,4-triazol-1-yl)benzyl)-5-methyl-1H-1,2,4-triazol-3-yl)-3-methylazetidine-3-carbonitrile] | 1 to 10 µM
2 | COC(=O)c1nc(C)c(Oc2ncc(-n3ncn(Cc4c(F)cccc4F)c3=O)cc2Cl)s1 [Example 649, methyl 5-((3-chloro-5-(4-(2,6-difluorobenzyl)-5-oxo-4,5-dihydro-1H-1,2,4-triazol-1-yl)pyridin-2-yl)oxy)-4-methylthiazole-2-carboxylate] | < 0.1 µM

Same assay, conditions: Homo sapiens, HT-29, HT-29 necroptosis cell viability assay; class symbols for IC50; read-out: Activity

Row | Compound | IC50
3 | Cc1nc(C(N)=O)sc1Oc1ccc(-n2ncn(Cc3c(F)cccc3C#N)c2=O)cc1F [Example 567, 5-(4-(4-(2-cyano-6-fluorobenzyl)-5-oxo-4,5-dihydro-1H-1,2,4-triazol-1-yl)-2-fluorophenoxy)-4-methylthiazole-2-carboxamide] | < 0.1 µM
4 | CCOC(=O)c1ocnc1Oc1ccc(-n2ncn(Cc3c(F)cccc3F)c2=O)cc1F [Example 534, ethyl 4-(4-(4-(2,6-difluorobenzyl)-5-oxo-4,5-dihydro-1H-1,2,4-triazol-1-yl)-2-fluorophenoxy)oxazole-5-carboxylate] | < 0.1 µM
5 | Cc1nn(Cc2ccc(-n3ncn(Cc4c(F)cccc4F)c3=O)cc2)cc1C#N [Example 190, 1-(4-(4-(2,6-difluorobenzyl)-5-oxo-4,5-dihydro-1H-1,2,4-triazol-1-yl)benzyl)-3-methyl-1H-pyrazole-4-carbonitrile] | < 0.1 µM
6 | Cc1nc(C#N)sc1Oc1ccc(-n2ncn(Cc3c(F)cccc3F)c2=O)cc1F [Example 569, 5-(4-(4-(2,6-difluorobenzyl)-5-oxo-4,5-dihydro-1H-1,2,4-triazol-1-yl)-2-fluorophenoxy)-4-methylthiazole-2-carbonitrile] | < 0.1 µM
7 | Cc1nc(C(C)(C)O)sc1Oc1ccc(-n2ncn(Cc3c(F)cccc3C#N)c2=O)cc1F [Example 579, 3-fluoro-2-((1-(3-fluoro-4-((2-(2-hydroxypropan-2-yl)-4-methylthiazol-5-yl)oxy)phenyl)-5-oxo-1,5-dihydro-4H-1,2,4-triazol-4-yl)methyl)benzonitrile] | < 0.1 µM
8 | O=C1CC2(CCOCC2)CN1c1cc(Oc2ccc(-n3ncn(Cc4c(F)cccc4F)c3=O)cc2)ccn1 [Example 482, 2-(4-(4-(4-(2,6-difluorobenzyl)-5-oxo-4,5-dihydro-1H-1,2,4-triazol-1-yl)phenoxy)pyridin-2-yl)-8-oxa-2-azaspiro[4.5]decan-3-one] | 0.1 to 1 µM
9 | COC(=O)c1nc(C)c(Oc2ccc(-n3ncn(Cc4cc(Cl)ccn4)c3=O)cc2F)s1 [Example 575, methyl 5-(4-(4-((4-chloropyridin-2-yl)methyl)-5-oxo-4,5-dihydro-1H-1,2,4-triazol-1-yl)-2-fluorophenoxy)-4-methylthiazole-2-carboxylate] | 1 to 10 µM
10 | Cc1nc(C(C)(C)O)cn1Cc1ccc(-n2nc3n(c2=O)C(c2ccccc2)CC3)cc1F (stereo not shown) [Example 136, 2-(3-fluoro-4-((4-(2-hydroxypropan-2-yl)-2-methyl-1H-imidazol-1-yl)methyl)phenyl)-5-phenyl-2,5,6,7-tetrahydro-3H-pyrrolo[2,1-c][1,2,4]triazol-3-one] | 1 to 10 µM

Same assay, conditions: Homo sapiens, HT-29, HT-29 necroptosis cell viability, IC50 class symbols; read-out: Activity

Row | Compound | IC50
11 | Cc1cnc(N2CC(C)(N)C2)cc1Oc1ccc(-n2ncn(Cc3c(F)cccc3F)c2=O)cc1F [Example 422, 2-(4-((2-(3-amino-3-methylazetidin-1-yl)-5-methylpyridin-4-yl)oxy)-3-fluorophenyl)-4-(2,6-difluorobenzyl)-2,4-dihydro-3H-1,2,4-triazol-3-one] | < 0.1 µM
12 | CC(C)(O)C1CCN1c1cc(Oc2ccc(-n3ncn(Cc4c(F)cccc4F)c3=O)cc2F)c(F)cn1 (stereo not shown) [Example 293, 4-(2,6-difluorobenzyl)-2-(3-fluoro-4-((5-fluoro-2-(2-(2-hydroxypropan-2-yl)azetidin-1-yl)pyridin-4-yl)oxy)phenyl)-2,4-dihydro-3H-1,2,4-triazol-3-one] | < 0.1 µM
13 | Cc1nc(N2CCN(C)CC2)sc1Oc1ccc(-n2ncn(Cc3c(F)cccc3F)c2=O)cc1F [Example 296, 4-(2,6-difluorobenzyl)-2-(3-fluoro-4-((4-methyl-2-(4-methylpiperazin-1-yl)thiazol-5-yl)oxy)phenyl)-2,4-dihydro-3H-1,2,4-triazol-3-one] | < 0.1 µM
14 | O=c1n(Cc2c(F)cccc2F)cnn1-c1ccc(Oc2ccnc(NC3CC(F)(F)C3)c2)cc1 [Example 328, 4-(2,6-difluorobenzyl)-2-(4-((2-((3,3-difluorocyclobutyl)amino)pyridin-4-yl)oxy)phenyl)-2,4-dihydro-3H-1,2,4-triazol-3-one] | 0.1 to 1 µM
15 | Cc1cnc(N2CC(C)(C#N)C2)nc1Oc1ccc(-n2ncn(Cc3c(F)cccc3F)c2=O)cc1F [Example 225, 1-[4-(4-{4-[(2,6-difluorophenyl)methyl]-5-oxo-1,2,4-triazol-1-yl}-2-fluorophenoxy)-5-methylpyrimidin-2-yl]-3-methylazetidine-3-carbonitrile] | 0.1 to 1 µM
16 | N#Cc1cc(Oc2ccc(-n3ncn(Cc4c(F)cccc4F)c3=O)cc2)ccn1 [Example 405, 4-(4-(4-(2,6-difluorobenzyl)-5-oxo-4,5-dihydro-1H-1,2,4-triazol-1-yl)phenoxy)picolinonitrile] | 0.1 to 1 µM
17 | O=c1n(Cc2c(F)cccc2F)cnn1-c1ccc(Oc2ccnc(OCC3CC3)c2)cc1 [Example 347, 2-(4-((2-(cyclopropylmethoxy)pyridin-4-yl)oxy)phenyl)-4-(2,6-difluorobenzyl)-2,4-dihydro-3H-1,2,4-triazol-3-one] | < 0.1 µM
18 | Cc1cnc(N2CC3(CCOCC3)C2)cc1Oc1ccc(-n2ncn(Cc3c(F)cccc3F)c2=O)cc1 [Example 263, 4-(2,6-difluorobenzyl)-2-(4-((5-methyl-2-(7-oxa-2-azaspiro[3.5]nonan-2-yl)pyridin-4-yl)oxy)phenyl)-2,4-dihydro-3H-1,2,4-triazol-3-one] | < 0.1 µM

Same assay, conditions: Homo sapiens; HT-29 cells stimulated with TNF-α (10 ng/ml), SMAC mimetic (6 μM) and zVAD-FMK (10 μM); 20 hours; CellTiter-Glo ATP luminescence; geometric mean IC50 from 10 points; read-out: Activity

Row | Compound | IC50
19 | Cc1nc(Br)sc1Oc1ccc(-n2ncn(Cc3ccccc3C#N)c2=O)cc1F [Example 6, 2-((1-(4-((2-bromo-4-methylthiazol-5-yl)oxy)-3-fluorophenyl)-5-oxo-1-5-dihydro-4H-1,2,4-triazol-4-yl)methyl)benzonitrile] | 0.1 to 1 µM
20 | Cc1nc(C(N)=O)sc1Oc1ccc(-n2nc3n(c2=O)[C@H](c2ccccc2F)C[C@@H]3F)cc1F (single isomer, unassigned) [Example 698] | < 0.1 µM
21 | Cc1ncc(Oc2ccc(-n3ncn(Cc4c(F)cccc4F)c3=O)cc2)s1 [Example 99, 4-(2,6-difluorobenzyl)-2-(4-((2-methylthiazol-5-yl)oxy)phenyl)-2,4-dihydro-3H-1,2,4-triazol-3-one] | < 0.1 µM
22 | Cc1nn(-c2ccc(N(C)c3ccccc3)cc2)c(=O)n1Cc1ccccc1 [Example 67, 4-benzyl-5-methyl-2-(4-(methyl(phenyl)amino)phenyl)-2,4-dihydro-3H-1,2,4-triazol-3-one] | 0.1 to 1 µM
